Assay results as given in patent US9988400B2 (Genentech, Inc., priority 2013, dated 2018).
pEC50: −log10 of the molar value.

Biological target: T1, HEK cells stably transfected with tetracycline inducible hNR1 and hNR2A (Homo sapiens, UniProt Q05586+Q12879)
T1 construct: expressed in transfected cells; host or cells: HEK cells, stably transfected, tetracycline/doxycycline inducible
Assay: Assay 1: Cell-Based Assay, cytosolic calcium response to positive allosteric modulators (with 30 μM glycine and 300 nM L-glutamate, EC30)
Conditions: for pEC50: cytosolic calcium response, with 30 μM glycine and 300 nM L-glutamate (EC30), — = no plateau was reached; for Max %: responses scaled relative to 100 μM L-glutamate maximal response (100%) and 0 μM L-glutamate (0%)
Outline: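 Cells induced 24 h with 7.5 μg mL^−1 doxycycline plus 500 μM (+)-ketamine, loaded 60 min at 37 °C with calcium dye in Mg-free HBSS (1.8 mM Ca, probenecid, 10 μM (+)-ketamine, pH 7.15). Peak RFU over 5 min after compound addition, scaled to 100 μM L-glutamate (100%) and 0 μM (0%); four-parameter Hill fit for EC50, max % if no plateau.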

T1 sequence (Q12879 23-1464, other chains not shown): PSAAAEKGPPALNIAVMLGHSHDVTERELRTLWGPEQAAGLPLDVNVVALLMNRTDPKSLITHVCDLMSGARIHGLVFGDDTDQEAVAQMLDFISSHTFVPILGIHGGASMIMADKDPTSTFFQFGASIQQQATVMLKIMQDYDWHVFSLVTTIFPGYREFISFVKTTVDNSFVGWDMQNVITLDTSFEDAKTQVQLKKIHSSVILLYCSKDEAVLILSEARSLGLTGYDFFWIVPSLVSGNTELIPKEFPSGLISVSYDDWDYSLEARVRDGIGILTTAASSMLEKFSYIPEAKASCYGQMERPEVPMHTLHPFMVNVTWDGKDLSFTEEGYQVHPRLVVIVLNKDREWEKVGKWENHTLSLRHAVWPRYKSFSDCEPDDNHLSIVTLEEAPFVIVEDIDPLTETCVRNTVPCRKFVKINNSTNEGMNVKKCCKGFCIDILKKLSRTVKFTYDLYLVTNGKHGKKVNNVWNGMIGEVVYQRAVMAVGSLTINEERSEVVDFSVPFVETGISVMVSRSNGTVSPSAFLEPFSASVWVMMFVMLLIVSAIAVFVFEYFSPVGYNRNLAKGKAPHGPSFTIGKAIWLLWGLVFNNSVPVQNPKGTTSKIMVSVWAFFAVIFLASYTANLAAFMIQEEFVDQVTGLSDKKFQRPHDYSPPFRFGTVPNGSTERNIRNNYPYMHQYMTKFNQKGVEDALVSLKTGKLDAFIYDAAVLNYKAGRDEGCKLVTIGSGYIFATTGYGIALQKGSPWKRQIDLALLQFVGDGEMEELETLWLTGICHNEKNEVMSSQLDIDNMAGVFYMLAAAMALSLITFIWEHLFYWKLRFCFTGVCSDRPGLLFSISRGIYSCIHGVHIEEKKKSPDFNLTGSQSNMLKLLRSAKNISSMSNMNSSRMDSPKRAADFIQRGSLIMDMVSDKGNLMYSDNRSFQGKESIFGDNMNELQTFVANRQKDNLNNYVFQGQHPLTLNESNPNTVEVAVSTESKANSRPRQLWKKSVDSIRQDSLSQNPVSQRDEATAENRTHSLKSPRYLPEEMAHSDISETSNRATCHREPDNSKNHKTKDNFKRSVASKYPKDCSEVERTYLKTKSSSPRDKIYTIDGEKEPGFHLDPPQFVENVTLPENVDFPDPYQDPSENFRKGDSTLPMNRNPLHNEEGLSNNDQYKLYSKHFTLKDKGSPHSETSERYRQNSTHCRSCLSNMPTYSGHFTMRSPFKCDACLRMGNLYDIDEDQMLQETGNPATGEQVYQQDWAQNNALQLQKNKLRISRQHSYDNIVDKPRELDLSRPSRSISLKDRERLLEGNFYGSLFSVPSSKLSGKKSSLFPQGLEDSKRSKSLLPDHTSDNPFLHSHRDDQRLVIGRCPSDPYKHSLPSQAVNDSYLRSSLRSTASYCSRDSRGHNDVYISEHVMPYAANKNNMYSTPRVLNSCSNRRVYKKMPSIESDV

Row | pEC50 (Table 3) | pEC50 (Table 2) | Max % (Table 2) [%] | SMILES
1 | 4.81 |  |  | CNC(=O)c1c(C)sc2nc(Cc3cc(F)c(F)cc3Cl)cc(=O)n12 [compound 16, 7-[(2-chloro-4,5-difluoro-phenyl)methyl]-N,2-dimethyl-5-oxo-thiazolo[3,2-a]pyrimidine-3-carboxamide]
2 | 5.92 |  |  | CNC(=O)c1c(C)sc2nc(Cn3nc(C(F)(F)F)cc3Cl)cc(=O)n12 [compound 96, 7-[[5-chloro-3-(trifluoromethyl)pyrazol-1-yl]methyl]-N,2-dimethyl-5-oxo-thiazolo[3,2-a]pyrimidine-3-carboxamide]
3 |  | 4.86 | 121 | Cc1sc2nc(COc3ccc(F)cc3)cc(=O)n2c1C(C)CCO (centres unmarked) [Example 4.33, 7-(4-Fluorophenoxymethyl)-3-(4-hydroxybutan-2-yl)-2-methyl-5H-[1,3]thiazolo[3,2-a]pyrimidin-5-one]
4 |  | 4.67 | 133 | CNC(=O)c1c(C)sc2nc(Cc3cccc(C#N)c3F)cc(=O)n12 [Example 21.2, 7-(3-cyano-2-fluorobenzyl)-N,2-dimethyl-5-oxo-5H-thiazolo[3,2-a]pyrimidine-3-carboxamide]
5 |  | 5.36 | 123 | Cc1sc2nc(COc3ccc(F)cn3)cc(=O)n2c1[C@@H]1C[C@H]1CO (relative stereo) [Example 4.9, 7-[[(5-Fluoropyridin-2-yl)oxy]methyl]-3-[trans-2-(hydroxymethyl)cyclopropyl]-2-methyl-5H-[1,3]thiazolo[3,2-a]pyrimidin-5-one]
6 |  | 5.38 | 111 | CNC(=O)c1c(C)sc2nc(Cc3cccc(CF)c3F)cc(=O)n12 [Example 21.68, 7-[[2-fluoro-3-(fluoromethyl)phenyl]methyl]-N,2-dimethyl-5-oxo-thiazolo[3,2-a]pyrimidine-3-carboxamide]
7 | 5.15 |  |  | CCNC(=O)c1c(C(F)(F)F)sc2nc(Cn3nc(C)cc3C(F)(F)F)cc(=O)n12 [compound 46, N-ethyl-7-[[3-methyl-5-(trifluoromethyl)pyrazol-1-yl]methyl]-5-oxo-2-(trifluoromethyl)thiazolo[3,2-a]pyrimidine-3-carboxamide]
8 |  | 5.80 | 58 | CC#Cc1c(C)sc2nc(CN(CC)c3ccc(F)cc3)cc(=O)n12 [Example 5.52]
9 | 6.13 |  |  | CCNC(=O)c1c(C(F)F)sc2nc(Cn3nc(Cl)cc3C(F)(F)F)cc(=O)n12 [compound 259, 7-[[3-chloro-5-(trifluoromethyl)pyrazol-1-yl]methyl]-2-(difluoromethyl)-N-ethyl-5-oxo-thiazolo[3,2-a]pyrimidine-3-carboxamide]
10 | 5.64 |  |  | CNC(=O)c1c(C(F)(F)F)sc2nc(Cn3nc(Cl)cc3C(F)(F)F)cc(=O)n12 [compound 56, 7-[[3-chloro-5-(trifluoromethyl)pyrazol-1-yl]methyl]-N-methyl-5-oxo-2-(trifluoromethyl)thiazolo[3,2-a]pyrimidine-3-carboxamide]
11 |  | 4.73 | 51.8 | Cc1cn2c(=O)cc(Cn3nc(C(F)(F)F)cc3C(F)(F)F)nc2s1 [Example 15.33, 7-((3,5-bis(trifluoromethyl)-1H-pyrazol-1-yl)methyl)-2-methyl-5H-thiazolo[3,2-a]pyrimidin-5-one]
12 | 4.89 |  |  | Cc1sc2nc(Cn3nc(N)cc3Cl)cc(=O)n2c1Br [compound 227, 7-[(3-amino-5-chloro-pyrazol-1-yl)methyl]-3-bromo-2-methyl-thiazolo[3,2-a]pyrimidin-5-one]
13 | 5.74 |  |  | CCN(Cc1cc(=O)n2c(/C=C/C#N)c(C)sc2n1)c1ccc(F)cc1 [compound 279, (E)-3-[7-[(N-ethyl-4-fluoro-anilino)methyl]-2-methyl-5-oxo-thiazolo[3,2-a]pyrimidin-3-yl]prop-2-enenitrile]
14 |  | 4.60 | 129 | CC(=O)c1c(C)sc2nc(Cn3nc(C4CC4)cc3C(F)(F)F)cc(=O)n12 [Example 18.3, 3-acetyl-7-((3-cyclopropyl-5-(trifluoromethyl)-1H-pyrazol-1-yl)methyl)-2-methyl-5H-thiazolo[3,2-a]pyrimidin-5-one]
15 | 6.30 |  |  | Cc1sc2nc(Cn3nc(C(F)(F)F)cc3Cl)cc(=O)n2c1C1CC1C (single isomer, unassigned) [compound 154]
16 |  | 5.12 | 156 | CCN(Cc1cc(=O)n2c(CNCCO)c(C)sc2n1)c1ccc(F)cc1 [Example 10.22, 7-[(N-ethyl-4-fluoro-anilino)methyl]-3-[(2-hydroxyethylamino)methyl]-2-methyl-thiazolo[3,2-a]pyrimidin-5-one]

Row | pEC50 (Table 3) | pEC50 (Table 2) | Max % (Table 2) [%] | SMILES
17 | 6.44 |  |  | CCNC(=O)c1c(C(F)(F)F)sc2nc(Cn3nc(C(F)(F)F)cc3Cl)cc(=O)n12 [compound 43, 7-[[5-chloro-3-(trifluoromethyl)pyrazol-1-yl]methyl]-N-ethyl-5-oxo-2-(trifluoromethyl)thiazolo[3,2-a]pyrimidine-3-carboxamide]
18 |  | 5.24 | 146 | Cc1sc2nc(Cc3cc(C#N)ccc3C3CC3)cc(=O)n2c1[C@@H]1C[C@H]1CO (relative stereo) [Example 20.13, 4-cyclopropyl-3-((3-(trans-2-(hydroxymethyl)cyclopropyl)-2-methyl-5-oxo-5H-thiazolo[3,2-a]pyrimidin-7-yl)methyl)benzonitrile]
19 | 5.59 |  |  | CCNC(=O)c1c(C)sc2nc(Cc3cccc(Cl)c3F)c(F)c(=O)n12 [compound 8, 7-[(3-chloro-2-fluoro-phenyl)methyl]-N-ethyl-6-fluoro-2-methyl-5-oxo-thiazolo[3,2-a]pyrimidine-3-carboxamide]
20 |  | 5.42 | 123 | Cc1sc2nc(Cn3ncc4cc(F)ccc43)cc(=O)n2c1[C@@H]1C[C@H]1CO (relative stereo) [Example 15.26, 7-[(5-fluoroindazol-1-yl)methyl]-3-[trans-2-(hydroxymethyl)cyclopropyl]-2-methyl-thiazolo[3,2-a]pyrimidin-5-one]
21 |  | 5.12 | 131 | CCNC(=O)c1c(C)sc2nc(Cc3cccc(Cl)c3F)cc(=O)n12 [Example 21.3, 7-(3-chloro-2-fluorobenzyl)-N-ethyl-2-methyl-5-oxo-5H-thiazolo[3,2-a]pyrimidine-3-carboxamide]
22 | 6.81 |  |  | N#Cc1cccc(Cc2cc(=O)n3c(C4CC4C(F)(F)F)c(C(F)(F)F)sc3n2)c1F (centres unmarked) [compound 146, 2-fluoro-3-[[5-oxo-2-(trifluoromethyl)-3-[2-(trifluoromethyl)cyclopropyl]thiazolo[3,2-a]pyrimidin-7-yl]methyl]benzonitrile]
23 | 5.06 |  |  | Cc1sc2nc(Cn3nc(C(F)(F)F)cc3C)cc(=O)n2c1C(=O)NCC(F)(F)F [compound 52, 2-methyl-7-[[5-methyl-3-(trifluoromethyl)pyrazol-1-yl]methyl]-5-oxo-N-(2,2,2-trifluoroethyl)thiazolo[3,2-a]pyrimidine-3-carboxamide]
24 | 5.40 |  |  | CCNC(=O)c1c(C)sc2nc(Cc3cccc(C4(F)CC4)c3F)cc(=O)n12 [compound 35, N-ethyl-7-[[2-fluoro-3-(1-fluorocyclopropyl)phenyl]methyl]-2-methyl-5-oxo-thiazolo[3,2-a]pyrimidine-3-carboxamide]
25 |  | 5.74 | 148 | Cc1sc2nc(Cc3cccc(C#N)c3F)cc(=O)n2c1[C@@H]1C[C@H]1CO (relative stereo) [Example 20.3, 2-fluoro-3-((3-(trans-2-(hydroxymethyl)cyclopropyl)-2-methyl-5-oxo-5H-thiazolo[3,2-a]pyrimidin-7-yl)methyl)benzonitrile]
26 | 5.86 |  |  | CCNC(=O)c1c(OCC(F)(F)F)sc2nc(Cc3cccc(C(F)(F)F)c3F)cc(=O)n12 [compound 165, N-ethyl-7-[[2-fluoro-3-(trifluoromethyl)phenyl]methyl]-5-oxo-2-(2,2,2-trifluoroethoxy)thiazolo[3,2-a]pyrimidine-3-carboxamide]
27 | 5.53 |  |  | CNC(=O)c1c(C(F)(F)F)sc2nc(Cc3cccc(C#N)c3F)cc(=O)n12 [compound 70, 7-[(3-cyano-2-fluoro-phenyl)methyl]-N-methyl-5-oxo-2-(trifluoromethyl)thiazolo[3,2-a]pyrimidine-3-carboxamide]
28 |  | 4.39 | 80.3 | CCN(Cc1cc(=O)n2c(-c3ccc(N)nc3)c(C)sc2n1)c1ccc(F)cc1 [Example 5.51, 3-(6-aminopyridin-3-yl)-7-((ethyl(4-fluorophenyl)amino)methyl)-2-methyl-5H-thiazolo[3,2-a]pyrimidin-3-one]
29 | 6.60 |  |  | Cc1sc2nc(Cn3nc(Cl)cc3C(F)(F)F)cc(=O)n2c1C1CC1CO (centres unmarked) [compound 103, 7-[[3-chloro-5-(trifluoromethyl)pyrazol-1-yl]methyl]-3-[2-(hydroxymethyl)cyclopropyl]-2-methyl-thiazolo[3,2-a]pyrimidin-5-one]
30 | 5.92 |  |  | O=c1cc(Cn2nc(C(F)(F)F)cc2Cl)nc2sc(C(F)(F)F)c(-c3cncnc3)n12 [compound 171, 7-[[5-chloro-3-(trifluoromethyl)pyrazol-1-yl]methyl]-3-pyrimidin-5-yl-2-(trifluoromethyl)thiazolo[3,2-a]pyrimidin-5-one]
31 |  | 6.25 | 145.1 | CCN(Cc1cc(=O)n2c(-c3cncnc3)c(C)sc2n1)c1ccc(F)cc1 [Example 5.1, 7-[(N-ethyl-4-fluoro-anilino)methyl]-2-methyl-3-pyrimidin-5-yl-thiazolo[3,2-a]pyrimidin-5-one]
32 |  | 5.92 | 174 | CCN(Cc1cc(=O)n2c(CC#N)c(C)sc2n1)c1ccc(F)cc1 [Example 10.17, 2-[7-[(N-ethyl-4-fluoro-anilino)methyl]-2-methyl-5-oxo-thiazolo[3,2-a]pyrimidin-3-yl]acetonitrile]
